Assay results reported in patent publication US20240132457A1, “3-(2-(BENZO[D]THIAZOL-2-YL)-2-(PHENYLSUFONAMIDO)ETHYL)BENZIMIDAMIDE DERIVATIVES AND RELATED COMPOUNDS AS TMPRSS2 INHIBITORS FOR THE TREATMENT OF VIRAL INFECTIONS” (INTEGERBIO, INC., priority 2020, published 2024).

What was measured:
Assay type in all cases: biochemical
[1] = biological target: MMP 10 (Homo sapiens, UniProt P09238); experiment: Non-TMPRSS2 protease panel: MMP 10; settings: 3-fold from 10 μM
Protocol: (§1) Biochemical activity of compound 1 (racemic mixture, batch 1), compound 3 (racemic), compound 11, and compound 2 (enantiomer 1, batch 1) in proteases indicated in Table 21, Table 22, Table 23, and Table 24, respectively, were measured by testing the compounds in a 10-dose IC50 with a 3-fold series dilution starting at 10 μM against the proteases. The protease activities were monitored as a time-course measurement of the increase in fluorescence signal from fluorescently-labeled peptide substrate, and initial linear portion of slope (signal/min) was analyzed. The curve fits were performed when the activities at the highest concentration of compounds were less than 65%.

[2] = test system: Trypsin; experiment: Non-TMPRSS2 protease panel: Trypsin; settings: 10-dose, 3-fold from 10 μM
Protocol: as §1

[3] = biological target: Urokinase (Homo sapiens, UniProt P00749); experiment: Non-TMPRSS2 protease panel: Urokinase; settings: 10-dose, 3-fold from 10 μM
Protocol: as §1

[4] = biological target: T1, Kallikrein 5 (Homo sapiens, UniProt Q9Y337); experiment: Non-TMPRSS2 protease panel: Kallikrein 5; settings: 10-dose, 3-fold from 10 μM
T1 sequence (Q9Y337 23-293): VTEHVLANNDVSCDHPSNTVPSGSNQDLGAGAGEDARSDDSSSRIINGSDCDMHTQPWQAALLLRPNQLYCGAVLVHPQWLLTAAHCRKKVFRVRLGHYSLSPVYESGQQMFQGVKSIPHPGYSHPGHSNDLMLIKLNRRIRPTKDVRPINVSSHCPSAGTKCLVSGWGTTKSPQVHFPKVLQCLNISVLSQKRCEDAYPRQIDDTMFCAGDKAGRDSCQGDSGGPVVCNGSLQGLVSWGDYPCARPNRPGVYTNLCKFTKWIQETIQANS
Protocol: as §1

[5] = biological target: T2, MMP 7 (Homo sapiens, UniProt P09237); experiment: Non-TMPRSS2 protease panel: MMP 7; settings: 10-dose, 3-fold from 10 μM
T2 sequence (P09237 95-267): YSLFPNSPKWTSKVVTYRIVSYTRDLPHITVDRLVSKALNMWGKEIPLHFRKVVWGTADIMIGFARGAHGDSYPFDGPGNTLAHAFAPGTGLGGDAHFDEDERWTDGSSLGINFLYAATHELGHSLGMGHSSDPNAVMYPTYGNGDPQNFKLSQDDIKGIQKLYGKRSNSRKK
Protocol: as §1

[6] = biological target: Tryptase b2 (Homo sapiens, UniProt P20231); experiment: Non-TMPRSS2 protease panel: Tryptase b2; settings: 10-dose, 3-fold from 10 μM
Protocol: as §1

Chain of MMP 10 (P09238 99-476): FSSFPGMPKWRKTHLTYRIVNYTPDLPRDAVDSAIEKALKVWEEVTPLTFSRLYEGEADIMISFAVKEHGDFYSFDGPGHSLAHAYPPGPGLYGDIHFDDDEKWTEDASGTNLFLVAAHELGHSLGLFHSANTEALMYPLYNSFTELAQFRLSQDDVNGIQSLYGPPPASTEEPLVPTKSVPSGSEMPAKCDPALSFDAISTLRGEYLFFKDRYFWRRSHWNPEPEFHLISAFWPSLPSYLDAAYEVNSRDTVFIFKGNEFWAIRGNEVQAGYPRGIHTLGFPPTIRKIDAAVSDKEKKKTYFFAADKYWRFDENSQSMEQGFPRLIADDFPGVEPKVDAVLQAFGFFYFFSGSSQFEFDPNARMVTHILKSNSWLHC
Chain of Tryptase b2 (P20231 31-275): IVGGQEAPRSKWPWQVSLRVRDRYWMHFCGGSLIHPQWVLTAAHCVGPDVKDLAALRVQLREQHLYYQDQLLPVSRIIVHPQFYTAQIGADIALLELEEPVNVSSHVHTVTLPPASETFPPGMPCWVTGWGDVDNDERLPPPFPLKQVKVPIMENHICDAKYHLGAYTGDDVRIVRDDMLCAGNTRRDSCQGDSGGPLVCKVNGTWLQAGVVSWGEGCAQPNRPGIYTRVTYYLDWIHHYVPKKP

Row | Structure (SMILES) | IC50 [1] [µM] | IC50 [2] [µM] | IC50 [3] [µM] | IC50 [4] [µM] | IC50 [5] [µM] | IC50 [6] [µM]
1 | N=C(N)c1cccc(CC(NS(=O)(=O)c2ccccc2)c2nc3ccccc3s2)c1 (racemic) [1 (racemic mixture, batch 1), 3-[2-Benzenesulfonamido-2-(1,3-benzothiazol-2-yl)ethyl]benzene-1-carboximidamide] | > 10 | > 10 | > 10 | > 10 | > 10 | > 10
2 | N=C(N)c1cccc(CC(NS(=O)(=O)c2cccc(-c3ccc(Cl)cc3Cl)c2)c2nc3ccccc3s2)c1 (racemic) [3 (racemic), 3-[2-(1,3-Benzothiazol-2-yl)-2-{2′,4′-dichloro-[1,1′-biphenyl]-3-sulfonamido}ethyl]benzene-1-carboximidamide] | > 10 | < 10 | > 10 | > 10 | > 10 | < 10
3 | N=C(N)c1cccc(C[C@H](NS(=O)(=O)c2ccccc2)c2nnco2)c1 (single isomer, unassigned) [Compound 2 (enantiomer 1, batch 1), 3-[2-Benzenesulfonamido-2-(1,3,4-oxadiazol-2-yl)ethyl]benzene-1-carboximidamide] | > 10 | > 10 | > 10 | > 10 | > 10 | > 10
4 | COc1ccc2nc(C(Cc3cccc(C(=N)N)c3)NS(=O)(=O)c3ccccc3)sc2c1 (stereo not drawn) [Compound 11, 3-[2-Benzenesulfonamido-2-(6-methoxy-1,3-benzothiazol-2-yl)ethyl]benzene-1-carboximidamide] | > 10 | > 10 | < 10 | > 10 | > 10 | > 10
